In patent US20070203066A1, “Compositions and methods for inhibiting cellular proliferation” (priority 2005, published 2007):
pIC50: −log10 of the molar value. Like-named read-outs stand apart in the source and are kept apart here. Positions of bridges follow the written chain, without caps; N, C: chain ends. Residues, ends and D or L forms follow the SMILES beside them. Chains are numbered I, II in the order given. No end group written: not given here. Ida = iminodiacetic acid linker, its two carboxyls bind the Lys side-chain amines of two peptides, giving a homodimer

Experiments:
[1] = system: bFGF-induced angiogenesis in Matrigel plugs; experiment: Murine Matrigel plug angiogenesis assay; format: in vivo, C57B1/6 mice; conditions: 10-12 days of treatment, hemoglobin in plugs vs +bFGF/Buffer control
Experimental: In order to assess the effect of the peptides in this invention on angiogenesis, an additional assay was used to assess antiangiogenic activity.
Briefly, Matrigel (BD Biosciences, San Jose, Calif.) is mixed with 0.5 μg/ml of bFGF. 0.5 ml of this Matrigel/bFGF mixture is then injected subcutaneously on the ventral abdominal surface at the level of the xiphoid process of C57B1/6 mice. Matrigel plugs, injected in absence of bFGF addition, are used as negative controls. Treatment with various peptides is initiated 12-18 hours later. Animals are treated by i.p. administration of peptides, dosed at 0.2mg/d of peptide dimers, and 1.4 mg/d of Pegylated peptide dimers. After 10-12 days of treatment, animals are euthanized, and the Matrigel plugs are surgically removed, and cleaned of mouse tissue, fascia, and fat. […] After centrifugation, supernatant for each plug is assayed for the presence of Hemoglobin using a Serum Hemoglobin analysis kit (Sigma Diagnostics, St. Louis, Mo.). Angiogenesis is defined as the fold increase of hemoglobin in the buffer control treated mouse Matrigel plugs, above the amount of hemoglobin in negative (−bFGF) control Matrigel plugs. For experimental peptide treated animals, the percent inhibition is defined as the inhibition seen when comparing positive control plugs (+bFGF/ Buffer treatment) with peptide treated plugs (+bFGF/ Peptide treatment).

HUVECs = format: cell-based
Procedure, shortened: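 HUVECs seeded at 5,000 cells/well in EBM with 2% FCS, adhered ≥12 hours, then stimulated with bFGF 10 ng/ml or VEGF 5 ng/ml plus varying peptide concentrations. After 48 hours at 37 ° C, 5% CO2, proliferation inhibition read by BrdU incorporation.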

[2] = system: Mouse Lewis lung carcinoma (LLC) cells; experiment: Proliferation assay of tumor cells (BrdU incorporation), LLC; format: cell-based; conditions: 48 hours, read-out: Inhibitory Activity (IC50 uM) LLC
Experimental: (§1) The antiproliferative activity of selected peptides of the present invention was assessed on several tumor cell lines. Mouse Lewis lung carcinoma (LLC) cells were routinely cultured to near confluency in DMEM media with 10% FCS added. The cells were trypsinized and plated in a 96-well plate at 5,000 cells per well per 100 μl media supplemented with 2% FCS and antibiotics. MDA-MB-231 cells were routinely cultured to near confluency in advanced DMEM media supplemented with 10% FCS. The cells were allowed to adhere to the plate for at least 12 hours. Then, whole media and various concentrations of peptide, were added to the wells. The cells were cultured for 48 hours at 37 ° C. in a 5% CO2 atmosphere. Cell proliferation was determined using a bromo-deoxyuridine (BrdU) incorporation method as described by the manufacturer. Inhibition of cell proliferation, was assessed by BrdU incorporation.
(§2) The ability of representative peptides of this invention for their ability to inhibit various tumor cells line proliferation are listed below in Table 2.

MDA-MB-231 cells = experiment: Proliferation assay of tumor cells (BrdU incorporation), MDA-MB-231; format: cell-based; conditions: MDA-MB-231 proliferation, 48 hours, read-out: Inhibitory Activity (IC50 uM) MDA-MB-231
Experimental: as §1, §2

[3] = HUVEC proliferation, bFGF at 10 ng/ml or VEGF at 5 ng/ml, 48 hours, BrdU incorporation, read-out: IC50 on HUVECs
[4] = Pegylated peptide dimers, i.p. 1.4 mg/d

Compound | pIC50 (HUVECs; [3]) | also measured
167 (Ac-RRRRRQRVRIIFK; not fully specified (C-terminus); also: homodimer via Ida linker on Lys13 side chains) [compound 167] | > 5.00 | Matrigel Model % Inhibition ([1]; peptide dimers, i.p. 0.2mg/d): 42.0%
228 (Ac-ARRRRQRVAIYFK; also: homodimer via Ida linker on side chain of Lys13) [compound 228] | > 5.00 | Matrigel Model % Inhibition ([1]; peptide dimers, i.p. 0.2mg/d): 55.0%
267 (Ac-RRRRRQAVAIYFK-NH2; not fully specified (residue 13); also: homodimer via Ida linker on Lys13 side chain) [compound 267] | > 5.00 | Matrigel Model % Inhibition ([1]; peptide dimers, i.p. 0.2mg/d): 36.0%
279 (Ac-RRRRRQRVRIYFK-NH2; not fully specified (residue 13); also: homodimer via Ida linker on Lys13 side chain) [compound 279] | > 5.00 | Matrigel Model % Inhibition ([1]; peptide dimers, i.p. 0.2mg/d): 56.0%
315 (Ac-ARRRRQAVAIYFK(Ida)-NH2; also: homodimer via Ida linker on Lys13 side chain) [compound 315] | > 5.00 | Matrigel Model % Inhibition ([1]; peptide dimers, i.p. 0.2mg/d): 52.0%
331 (Ac-ARRRRQRVAIYFK-NH2; not fully specified (residue 13); also: homodimer via Lys13 side chain, GP3 linker) [compound 331] | > 5.00 | Matrigel Model % Inhibition ([1]; peptide dimers, i.p. 0.2mg/d): 44.0%
375 (Ac-RRRRRQRVRIIFK-NH2; not fully specified (residue 13); also: homodimer via Ida-PEG 30 kDa linker on Lys13 side chain) [compound 375] | > 5.00 | Matrigel Model % Inhibition [1, 4]: 46.0%
376 (Ac-ARRRRQRVAIYFK-NH2; not fully specified (residue 13); also: homodimer via Ida-PEG 30 kDa linker on Lys13 side chain) [compound 376] | > 5.00 | Matrigel Model % Inhibition [1, 4]: 42.0%
381 (Ac-ARRRRQAVAIYFK-NH2; not fully specified (residue 13); also: homodimer via Ida-PEG 30 kDa linker on Lys13 side chain) [compound 381] | > 5.00 | Matrigel Model % Inhibition [1, 4]: 51.0%
CC[C@H](C)[C@H](NC(=O)[C@H](CCCNC(=N)N)NC(=O)[C@@H](NC(=O)[C@H](CCCNC(=N)N)NC(=O)[C@H](CCC(N)=O)NC(=O)[C@H](CCCNC(=N)N)NC(=O)[C@H](CCCNC(=N)N)NC(=O)[C@H](CCCNC(=N)N)NC(=O)[C@H](CCCNC(=N)N)NC(=O)[C@@H](N)CCCNC(=N)N)C(C)C)C(=O)N[C@H](C(=O)N[C@@H](Cc1ccccc1)C(=O)NCCCC[C@H](NC(=O)[C@H](Cc1ccccc1)NC(=O)[C@@H](NC(=O)[C@@H](NC(=O)[C@H](CCCNC(=N)N)NC(=O)[C@@H](NC(=O)[C@H](CCCNC(=N)N)NC(=O)[C@H](CCC(N)=O)NC(=O)[C@H](CCCNC(=N)N)NC(=O)[C@H](CCCNC(=N)N)NC(=O)[C@H](CCCNC(=N)N)NC(=O)[C@H](CCCNC(=N)N)NC(=O)[C@@H](N)CCCNC(=N)N)C(C)C)[C@@H](C)CC)[C@@H](C)CC)C(N)=O)[C@@H](C)CC [Peptide 132] (I: H-RRRRRQRVRIIFK-NH2 / II: H-RRRRRQRVRIIF; amide I:13-II:C; N-terminus assumed) |  | IC50 [2]: < 10 µM; pIC50 (HUVECs; 48 h): > 5.00; IC50 (MDA-MB-231 cells): < 10 µM
CC[C@H](C)[C@H](NC(=O)[C@H](C)NC(=O)[C@@H](NC(=O)[C@H](CCCNC(=N)N)NC(=O)[C@H](CCC(N)=O)NC(=O)[C@H](CCCNC(=N)N)NC(=O)[C@H](C)NC(=O)[C@H](Cc1c[nH]cn1)NC(=O)[C@H](CCCNC(=N)N)NC(=O)[C@H](C)NC(C)=O)C(C)C)C(=O)N[C@H](C(=O)N[C@@H](Cc1ccccc1)C(=O)NCCCC[C@H](NC(=O)[C@H](Cc1ccccc1)NC(=O)[C@@H](NC(=O)[C@@H](NC(=O)[C@H](C)NC(=O)[C@@H](NC(=O)[C@H](CCCNC(=N)N)NC(=O)[C@H](CCC(N)=O)NC(=O)[C@H](CCCNC(=N)N)NC(=O)[C@H](C)NC(=O)[C@H](Cc1c[nH]cn1)NC(=O)[C@H](CCCNC(=N)N)NC(=O)[C@H](C)NC(C)=O)C(C)C)[C@@H](C)CC)[C@@H](C)CC)C(N)=O)[C@@H](C)CC [Peptide 214] (I: Ac-ARHARQRVAIIFK-NH2 / II: Ac-ARHARQRVAIIF; amide I:13-II:C) |  | IC50 [2]: > 30 µM; pIC50 (HUVECs; 48 h): < 4.52; IC50 (MDA-MB-231 cells): > 30 µM
CC[C@H](C)[C@H](NC(=O)[C@H](CCCNC(=N)N)NC(=O)[C@@H](NC(=O)[C@H](CCCNC(=N)N)NC(=O)[C@H](CCC(N)=O)NC(=O)[C@H](CCCNC(=N)N)NC(=O)[C@H](Cc1c[nH]cn1)NC(=O)[C@H](Cc1c[nH]cn1)NC(=O)[C@H](CCCNC(=N)N)NC(=O)[C@H](CCCNC(=N)N)NC(C)=O)C(C)C)C(=O)N[C@H](C(=O)N[C@@H](Cc1ccccc1)C(=O)NCCCC[C@H](NC(=O)[C@H](Cc1ccccc1)NC(=O)[C@@H](NC(=O)[C@@H](NC(=O)[C@H](CCCNC(=N)N)NC(=O)[C@@H](NC(=O)[C@H](CCCNC(=N)N)NC(=O)[C@H](CCC(N)=O)NC(=O)[C@H](CCCNC(=N)N)NC(=O)[C@H](Cc1c[nH]cn1)NC(=O)[C@H](Cc1c[nH]cn1)NC(=O)[C@H](CCCNC(=N)N)NC(=O)[C@H](CCCNC(=N)N)NC(C)=O)C(C)C)[C@@H](C)CC)[C@@H](C)CC)C(N)=O)[C@@H](C)CC [Peptide 240] (I: Ac-RRHHRQRVRIIFK-NH2 / II: Ac-RRHHRQRVRIIF; amide I:13-II:C) |  | IC50 [2]: < 10 µM; pIC50 (HUVECs; 48 h): > 5.00; IC50 (MDA-MB-231 cells): < 10 µM
RKKQRVKIAYEEIFVQNM [compound 23] | 4.52 to 5.00 | 
RKKQRVKIIF [compound 84] | < 4.52 | 
RKKQRVKIIFV [compound 89] | < 4.52 | 
RKRKKQQRVKIAYEEIFV [compound 76] | < 4.52 | 

Compound | pIC50 (HUVECs; [3]) | also measured
RKRKKQRVKIAYEEIF [compound 67] | < 4.52 | 
RKRKKQRVKIAYEEIFV [compound 62] | < 4.52 | 
RKRKKQRVKIAYEEIFVKNM [compound 4] | 4.52 to 5.00 | 
RKRKKQRVKIAYEEIFVQNM [compound 21] | < 4.52 | 
RKRKKQRVKIIF [compound 82] | < 4.52 | 
RKRKKQRVKIIFV [compound 90] | 4.52 to 5.00 | 
RVKIAYEEIFVQNM [compound 44] | < 4.52 | 
TKRKRKKQQRVKIAYEEIFV [compound 74] | < 4.52 | 
TKRKRKKQRVKIAYEEIF [compound 65] | < 4.52 | 
TKRKRKKQRVKIAYEEIFV [compound 60] | 4.52 to 5.00 | 
TKRKRKKQRVKIAYEEIFVKNM [compound 2] | 4.52 to 5.00 | 
TKRKRKKQRVKIAYEEIFVQNM [compound 19] | < 4.52 | 
TKRKRKKQRVKIIF [compound 80] | < 4.52 | 
TKRKRKKQRVKIIFV [compound 86] | 4.52 to 5.00 | 
VKIAYEEIFVQNM [compound 43] | < 4.52 | 
YGRKKRRQRRR [compound 445] | < 4.52 | 
